Assays:
[1] = Blood boron pharmacokinetics in B16 melanoma-bearing mice (ICP-AES, two-compartment fit); format: in vivo, C57/BL mice; settings: for Cmax blood, maximum boron concentration in blood: calculated values, BSH 50 mg kg-1 boron i.v.
Source text: (§1) Br. J. Cancer (1994), 69, 641 647 ? Macmillan Press Ltd., 1994~~~~~~~~~~~~~~~~~~~~~~~~~~~~~~~~~~~~~~~~~~~~~~~~~~~~~~~~~~~~~~~~~~~~~~~~~~~~~~~~~~~~~ Pharmacokinetics in melanoma-bearing- mice of 5-dihydroxyboryl- 6-propyl-2-thiouracil (BPTU), a candidate compound for boron neutron capture therapy R. Verrijkl, I.J.H. Smolders', R. Huiskamp2, P.R. Gavin3,. K.H.I. Philipp2 & A.C. Begg' 'The Netherlands Cancer Institute, Division of Experimental Therapy, Plesmanlaan 121, 1066 CX, Amsterdam, The Netherlands; 2The Netherlands Energy Research Foundation, Division of Radiobiology and Radioecology, PO Box 1, 1755 SG, Petten, The Netherlands; 3Department of Veterinary Clinical Medicine and Surgery and Washington Animal Disease and Diagnostic Laboratory, Washington State University, Pullman, Washington 99164-6610, USA. Summary Blood pharmacokinetics and tissue distribution of 5-dihydroxyboryl-6-propyl-2-thiouracil (BPTU), a boron carrier with postulated melanin-seeking properties for boron neutron capture therapy, were deter- mined in C57/BL mice with subcutaneous pigmented or non-pigmented B16 melanomas. Borocaptate sodium (BSH) was used as a boron compound without melanin-seeking properties in a comparative biodistribution study in the same animal tumour models. […] BPTU was found in large concentra- tions in kidney and liver. Brain boron was approximately 10-fold lower than tumour boron. […] Owing to solubility limits, tumour boron concentrations in this mouse study were too low for effective application of BNCT. However, the high tumour-to-blood and tumour-to-normal tissues ratios indicate that, with appropriate formulation, BPTU could be a promising candidate for clinical BNCT. […] The selective accumulation of "'B-containing compounds in tumours and subsequent irradiation with low-energy (thermal) neutrons form the basis of BNCT. The short track lengths of `'B(n,a)7Li fission pro- ducts (9 and 5 iLm for a and 7Li respectively) offer partial restriction of the radiation dose to the "'B-containing cells. […]

[2] = tested on: pigmented B16 melanoma (B16wt); experiment: Tumour boron uptake and retention in subcutaneous pigmented B16 tumours; format: in vivo, C57/BL mice; settings: for Tumour boron conc. / Tumour-to-blood ratio (boron): BSH 50 mg kg-1 boron single dose, B16.wt
Source text: (§2) Br. J. Cancer (1994), 69, 641 647 ? Macmillan Press Ltd., 1994~~~~~~~~~~~~~~~~~~~~~~~~~~~~~~~~~~~~~~~~~~~~~~~~~~~~~~~~~~~~~~~~~~~~~~~~~~~~~~~~~~~~~ Pharmacokinetics in melanoma-bearing- mice of 5-dihydroxyboryl- 6-propyl-2-thiouracil (BPTU), a candidate compound for boron neutron capture therapy R. Verrijkl, I.J.H. Smolders', R. Huiskamp2, P.R. Gavin3,. K.H.I. Philipp2 & A.C. Begg' 'The Netherlands Cancer Institute, Division of Experimental Therapy, Plesmanlaan 121, 1066 CX, Amsterdam, The Netherlands; 2The Netherlands Energy Research Foundation, Division of Radiobiology and Radioecology, PO Box 1, 1755 SG, Petten, The Netherlands; 3Department of Veterinary Clinical Medicine and Surgery and Washington Animal Disease and Diagnostic Laboratory, Washington State University, Pullman, Washington 99164-6610, USA. Summary Blood pharmacokinetics and tissue distribution of 5-dihydroxyboryl-6-propyl-2-thiouracil (BPTU), a boron carrier with postulated melanin-seeking properties for boron neutron capture therapy, were deter- mined in C57/BL mice with subcutaneous pigmented or non-pigmented B16 melanomas. Borocaptate sodium (BSH) was used as a boron compound without melanin-seeking properties in a comparative biodistribution study in the same animal tumour models. […] BPTU was found in large concentra- tions in kidney and liver. Brain boron was approximately 10-fold lower than tumour boron. […] Owing to solubility limits, tumour boron concentrations in this mouse study were too low for effective application of BNCT. However, the high tumour-to-blood and tumour-to-normal tissues ratios indicate that, with appropriate formulation, BPTU could be a promising candidate for clinical BNCT. […] The selective accumulation of "'B-containing compounds in tumours and subsequent irradiation with low-energy (thermal) neutrons form the basis of BNCT. The short track lengths of `'B(n,a)7Li fission pro- ducts (9 and 5 iLm for a and 7Li respectively) offer partial restriction of the radiation dose to the "'B-containing cells. Additional advantages owing to the high-LET (linear energy transfer) character of the emitted radiation are higher biological efficacies compared with photons or X-rays and less effect of hypoxia or cell cycle distribution on the therapeutic effect. The relatively high resistance of melanomas for photon therapy and the presence of a bio- chemical rationale for boron targeting explain the efforts made in this area (Mishima et al., 1989; Madoc Jones et al., 1990). The often high rate of melanogenesis in melanoma cells has led to the development of several boron drugs with melanoma-seeking capacity. The L-isomer of boronphenylalanine (BPA) is taken up by melanoma cells both in vitro and in vivo (Ichihashi et al., 1982; 1989; Coderre et al., 1987; 1990; Allen et al., 1992; Packer et al., 1992). Animal studies on BNCT efficacy and normal tissue tolerance with BPA have also been performed (Coderre et al., 1991; 1992; Hiratsuka et al., 1991). Although the uptake of BPA in melanoma cells is well accepted, incor- poration of boron into melanin might not occur, resulting in poor retention. Boronated thiouracils that enter the melanogenesis pathway at a different point from BPA have been recently synthesised, aiming at boron incorporation into the melanin for better retention (Tjarks & Gabel, 1991). […] Since the radiation dose in BNCT is mainly dependent on cellular boron levels, amelanotic tumour cell subpopulations may limit the efficacy of boron compounds that target the pigmented tumour cell fraction only. […] Begg. Received 1 September 1993; and in revised form 15 November 1993. into cell populations with different pigmentation levels in experimental tumour models, melanomas often increase in the amelanotic fraction with tumour progression and metas- tasis development in humans (Guiliano et al., 1982; Elder, 1987). It is therefore important to establish the capacity of melanoma-seeking boron drugs to target the amelanotic cells in a tumour. […]

[3] = tested on: non-pigmented B16.013 melanoma; experiment: Tumour boron uptake and retention in subcutaneous non-pigmented B16.013 tumours; format: in vivo, C57/BL mice; settings: for Tumour boron conc. / Tumour-to-blood ratio (boron): BSH 50 mg kg-1 boron single dose, B16.013
Source text: as §2

[4] = Boron distribution in blood and normal tissues (skin, muscle, brain, kidneys, liver) of tumour-bearing mice; format: in vivo, C57/BL mice
Source text: as §1, with “cells. Additional advantages owing to the high-LET (linear energy transfer) character of the emitted radiation are higher biological efficacies compared with photons or X-rays and less effect of hypoxia or cell cycle distribution on the therapeutic effect. The relatively high resistance of melanomas for photon therapy and the presence of a bio- chemical rationale for boron targeting explain the efforts made in this area (Mishima et al., 1989; Madoc Jones et al., 1990). The often high rate of melanogenesis in melanoma cells has led to the development of several boron drugs with melanoma-seeking capacity.” for “cells.”

[5] = tested on: subcutaneous fibrosarcoma RIF-1; experiment: BSH boron pharmacokinetics in blood and RIF-1 tumour tissue; format: in vivo, C3H/Km mice
melanotic B16 cells = settings: cited from earlier work; for Retention in cells in vitro: after washing, ref R. Verrijk et al., 1991, unpublished data
[6] = Solubility limit in formulation for injection; format: physicochemical; settings: limited the dose administered to mice
Source text: Br. J. Cancer (1994), 69, 641 647 ? Macmillan Press Ltd., 1994~~~~~~~~~~~~~~~~~~~~~~~~~~~~~~~~~~~~~~~~~~~~~~~~~~~~~~~~~~~~~~~~~~~~~~~~~~~~~~~~~~~~~ Pharmacokinetics in melanoma-bearing- mice of 5-dihydroxyboryl- 6-propyl-2-thiouracil (BPTU), a candidate compound for boron neutron capture therapy R. Verrijkl, I.J.H. Smolders', R. Huiskamp2, P.R. Gavin3,. K.H.I. Philipp2 & A.C. Begg' 'The Netherlands Cancer Institute, Division of Experimental Therapy, Plesmanlaan 121, 1066 CX, Amsterdam, The Netherlands; 2The Netherlands Energy Research Foundation, Division of Radiobiology and Radioecology, PO Box 1, 1755 SG, Petten, The Netherlands; 3Department of Veterinary Clinical Medicine and Surgery and Washington Animal Disease and Diagnostic Laboratory, Washington State University, Pullman, Washington 99164-6610, USA. Summary Blood pharmacokinetics and tissue distribution of 5-dihydroxyboryl-6-propyl-2-thiouracil (BPTU), a boron carrier with postulated melanin-seeking properties for boron neutron capture therapy, were deter- mined in C57/BL mice with subcutaneous pigmented or non-pigmented B16 melanomas. Borocaptate sodium (BSH) was used as a boron compound without melanin-seeking properties in a comparative biodistribution study in the same animal tumour models. […] BPTU was found in large concentra- tions in kidney and liver. Brain boron was approximately 10-fold lower than tumour boron. […]

[7] = tested on: non-pigmented B16.013 subclone; set-up: method as in R. Verrijk et al., 1991, unpublished data; settings: non-pigmented B16.013 cells; ref R. Verrijk et al., 1991, unpublished data; cited from earlier work
[8] = BSH 50 mg kg-1 boron i.v., 12 min after administration

Compound: Borocaptate sodium [BSH]
- Cmax values relative to BPTU ([1]; BSH 50 vs BPTU 3.15 mg kg-1 boron): approximately 10 fold
- Cmax blood, maximum boron concentration in blood ([1]; B16wt-bearing mice): 59.4 ± 10.6 g mli
- Cmax blood, maximum boron concentration in blood ([1]; B16.013-bearing mice): 54.1 ± 14.6 g mli
- Mean ratio Cmax tumour/injected dose ([2]; BSH 50 mg kg-1 boron i.v., B16wt tumour): 0.7
- Tumour boron conc. ([2]; 4 h): 7.6 g g-g'
- Tumour-to-blood ratio (boron) ([2]; 4 h): 1.1
- Tumour boron conc. ([2]; 24 h): 2.3 g g-g'
- Tumour-to-blood ratio (boron) ([2]; 24 h): 3.4
- Retention of boron in tumour ([2]; BSH 50 mg kg-1 boron, 24 and 48 h, pigmented B16): retained in B16 tumours at 24 and 48 h, irrespective of pigmentation degree
- Cmax tumour, maximum boron concentration in tumour ([2]; highest measured values, BSH 50 mg kg-1 boron i.v., B16wt tumour): 32.8 3.52 g mg-
- Mean ratio Cmax tumour/injected dose ([3]; BSH 50 mg kg-1 boron i.v., B16.013 tumour): 1.0
- Tumour boron conc. ([3]; 4 h): 10.5 g g-g'
- Tumour-to-blood ratio (boron) ([3]; 4 h): 1.5
- Tumour boron conc. ([3]; 24 h): 2.2 g g-g'
- Tumour-to-blood ratio (boron) ([3]; 24 h): 4.0
- Retention of boron in tumour ([3]; BSH 50 mg kg-1 boron, 24 and 48 h, non-pigmented B16): retained in B16 tumours at 24 and 48 h, irrespective of pigmentation degree
- Cmax tumour, maximum boron concentration in tumour ([3]; highest measured values, BSH 50 mg kg-1 boron i.v., B16.013 tumour): 49.8 11.0 g mg-
- Liver boron level [4, 8]: up to 230 Agg- g
- Liver boron relative to blood boron [4, 8]: 8 fold
- Liver-to-kidney boron concentration ratio ([4]; BSH, during the tissue distribution phase): 2-4
- Tumour-to-blood ratios of boron ([5]; BSH 50 mg kg-1 boron, RIF-1 fibrosarcoma, 24 or 48 h): not significantly above unity
- Boron tumour-to-blood ratios ([5]; BSH, at times before 24 h, tumour model not named at the place): below 1
- Levels of boron in cells vs culture medium (melanotic B16 cells; melanotic B16 cells incubated with BSH, ref Verrijk et al., 1992): higher than in the culture medium only after 16 h incubation
- Cellular boron retention after washing (melanotic B16 cells; melanotic B16 cells, washing with boron-free culture medium for 4 h, ref Verrijk et al., 1992): Partial cel- lular boron retention

Compound: CCCc1[nH]c(=S)[nH]c(=O)c1B(O)O [BPTU, 5-dihydroxyboryl-6-propyl-2-thiouracil]
- Change of mean tumour boron concentration, multiple vs single BPTU administration ([2]; 4 x 3.15 vs 3.15 mg kg-1 boron, 24 h, pigmented B16): increased more than three times
- Tumour boron vs blood boron profile ([3]; BPTU single dose, non-pigmented tumour variant): tumour boron levels closely followed blood levels
- Boron in kidney and liver ([4]; BPTU single doses): found in large concentrations in kidney and liver
- Solubility [6]: insufficient solubility
- Retention in cells in vitro (melanotic B16 cells; melanotic B16 cells): better retained in the cells than BPA or BSH
- Retention in cells in vitro [7]: failed to be retained

Compound: O=c1[nH]c(=S)[nH]cc1B(O)O [BTU, boronthiouracil]
- Retention in cells in vitro (melanotic B16 cells; melanotic B16 cells): showed no retention at all in either cell line
- Retention in cells in vitro [7]: showed no retention at all in either cell line

— article PMC1968811, “Pharmacokinetics in melanoma-bearing mice of 5-dihydroxyboryl-6-propyl-2-thiouracil (BPTU), a candidate compound for boron neutron capture therapy” (British Journal of Cancer, 1994)
